Read-outs that look alike come from different tables or passages of the source.
Key:
[1] = test system: HIV-1 strains, for e.g., 92HT599; test: Antiviral activity: p24 estimation in HIV-1 infected MT-2 cells; format: cell-based; details: for inhibition at 0.01 µM / inhibition at 0.1 µM / inhibition at 1 µM: p24, ~96 hours
Experimental: MT-2 cells were infected with required number of TCID50's of HIV-1 strains, for e.g., 92HT599. The infected cells were plated at the concentration of 30,000 cells per well in a 96 well plate. Test compound was added to the 96 well plate with the final concentration of DMSO (vehicle—not more than 1%). The plates are then incubated in a CO2 incubator for ˜96 hours (˜4 days) for viral infection. At the end of incubation period an aliquot from each well was taken for p24 estimation. The quantitation of p24 is an estimated index for antiviral activity of the compound. Percent inhibition was calculated with reference to control values (vehicle controls).
p-24 estimation was carried out using Advance biosciences kit as per the procedure detailed by supplier.

[2] = Single dose oral pharmacokinetic study; parameters: species or system mice; details: mouse, in vivo
Experimental: The test item was administered through oral route to animals (rat/mice) at 30 mg/kg dose in a suitable vehicle at 10 ml/kg dose volume. Blood samples (˜50 uL at each time point) were collected from retro-orbital plexus using K3 EDTA as anticoagulant in eppendorf tubes at defined time intervals under light ether anesthesia. The samples were centrifuged at 3500×g to separate plasma and stored at −80° C. until analysis.
Sample analysis: Test samples were analyzed using LC-MS-MS after developing fit-for-purpose method for each of test compound.

Cyto-toxicity, MTT assay = format: cell-based; details: read-out: Cytotoxicity % viability
Experimental: On day 1 calculate the number of cells required for the assay and seed 3×10^4 cells in 200 μl per well. Weigh the compound and dissolve it in DMSO to get 10 mM stock which is further diluted to 3 mM and 1 mM. The drugs from these stocks were added to plate to get final concentration of 100 μM, 30 μM and 10 μM. […] Incubate for 4 days in 5% CO2 incubator at 37° C. On day 4, 100 μl of medium was removed from each well without disturbing the cells. Add 10 μl of MTT reagent and incubate for 4 hours at 5% CO2 incubator at 37° C. for formation of crystals. Add 200 μl of 0.1N acidic isopropanol to dissolve the crystals and read the plate at 590 nm.

[3] = Human immunodeficiency virus 1, MT2, MT-2 cells, p24, read-out: Antiviral activity IC50
[4] = Human immunodeficiency virus 1, MT2, MT-2 cells
[5] = Human immunodeficiency virus 1, MT2, read-out: Antiviral activity IC50 (nM)
[6] = Mice oral PK @30 mg/kg, plasma, read-out: AUC 0-t
[7] = Mice oral PK @30 mg/kg, plasma, read-out: Cmax

Row | SMILES | IC50 [1, 3] | AUC(0-t) ([2]; po, 30 mg/kg) | Cmax ([2]; po, 30 mg/kg) | further results
1 | C=C(C)[C@@H]1CC[C@]2(C(=O)N3CCC[C@H]3c3nc(C(C)(C)C)cn3CCN(C)C)CC[C@]3(C)[C@H](CC[C@@H]4[C@@]5(C)CC[C@H](OC(=O)[C@H]6C[C@@H](C(=O)O)C6(C)C)C(C)(C)[C@@H]5CC[C@]43C)[C@@H]12 [Compound 11, (1R,3S)-3-((((1R,3aS,5aR,5bR,7aR,9S,11aR,11bR,13aR,13bR)-3a-((S)-2-(4-(tert-butyl)-1-(2-(dimethylamino)ethyl)-1H-imidazol-2-yl)pyrrolidine-1-carbonyl)-5a,5b,8,8,11a-pentamethyl-1-(prop-1-en-2-yl)icosahydro-1H-cyclopenta[a]chrysen-9-yl)oxy)carbonyl)-2,2-dimethyl cyclobutane-1-carboxylic acid] | 3.58 nM | 755 µg·h/mL | 18100 ng/mL | 
2 | C=C(C)[C@@H]1CC[C@]2(C(=O)N3CCC[C@H]3c3nc(-c4cccc(F)c4)cn3CCN(C)C)CC[C@]3(C)[C@H](CC[C@@H]4[C@@]5(C)CC[C@H](OC(=O)[C@H]6C[C@@H](C(=O)O)C6(C)C)C(C)(C)[C@@H]5CC[C@]43C)[C@@H]12 [Compound 12, (1R,3S)-3-((((1R,3aS,5aR,5bR,7aR,9S,11aR,11bR,13aR,13bR)-3a-((S)-2-(1-(2-(dimethylamino)ethyl)-4-(3-fluorophenyl)-1H-imidazol-2-yl)pyrrolidine-1-carbonyl)-5a,5b,8,8,11a-pentamethyl-1-(prop-1-en-2-yl)icosahydro-1H-cyclopenta[a]chrysen-9-yl)oxy)carbonyl)-2,2-dimethyl cyclobutane-1-carboxylic acid] |  |  |  | inhibition at 0.01 µM [1, 4]: 24%; inhibition at 0.1 µM [1, 4]: 44%; inhibition at 1 µM [1, 4]: 99%; viability at 4 days, 10 µM (Cyto-toxicity, MTT assay): 42%; viability at 4 days, 30 µM (Cyto-toxicity, MTT assay): 31%; viability at 4 days, 100 µM (Cyto-toxicity, MTT assay): 5%
3 | C=C(C)[C@@H]1CC[C@]2(C(=O)N3CCC[C@H]3c3nc(-c4ccccc4)cn3C)CC[C@]3(C)[C@H](CC[C@@H]4[C@@]5(C)CC[C@H](OC(=O)CC(C)(C)C(=O)O)C(C)(C)[C@@H]5CC[C@]43C)[C@@H]12 [Compound 15, 2,2-dimethyl-4-oxo-4-(((1R,3aS,5aR,5bR,7aR,9S,11aR,11bR,13aR,13bR)-5a,5b,8,8,11a-pentamethyl-3a-((S)-2-(1-methyl-4-phenyl-1H-imidazol-2-yl)pyrrolidine-1-carbonyl)-1-(prop-1-en-2-yl)icosahydro-1H-cyclopenta[a]chrysen-9-yl)oxy)butanoic acid] | 7.42 nM | 376 µg·h/mL | 15300 ng/mL | 
4 | C=C(C)[C@@H]1CC[C@]2(C(=O)N3CCC[C@H]3c3nc(-c4ccccc4)cn3CCN(C)C)CC[C@]3(C)[C@H](CC[C@@H]4[C@@]5(C)CC[C@H](OC(=O)CC(C)(C)C(=O)O)C(C)(C)[C@@H]5CC[C@]43C)[C@@H]12 [Compound 16, 4-(((1R,3aS,5aR,5bR,7aR,9S,11aR,11bR,13aR,13bR)-3a-((S)-2-(1-(2-(dimethylamino)ethyl)-4-phenyl-1H-imidazol-2-yl)pyrrolidine-1-carbonyl)-5a,5b,8,8,11a-pentamethyl-1-(prop-1-en-2-yl)icosahydro-1H-cyclopenta[a]chrysen-9-yl)oxy)-2,2-dimethyl-4-oxo butanoic acid] | 8.48 nM | 294 µg·h/mL | 9030 ng/mL | 
5 | C=C(C)[C@@H]1CC[C@]2(C(=O)N3CCC[C@H]3c3nc(-c4ccccc4)cn3CCOC)CC[C@]3(C)[C@H](CC[C@@H]4[C@@]5(C)CC[C@H](OC(=O)CC(C)(C)C(=O)O)C(C)(C)[C@@H]5CC[C@]43C)[C@@H]12 [Compound 17, 4-(((1R,3aS,5aR,5bR,7aR,9S,11aR,11bR,13aR,13bR)-3a-((S)-2-(1-(2-methoxyethyl)-4-phenyl-1H-imidazol-2-yl)pyrrolidine-1-carbonyl)-5a,5b,8,8,11a-pentamethyl-1-(prop-1-en-2-yl)icosahydro-1H-cyclopenta[a]chrysen-9-yl)oxy)-2,2-dimethyl-4-oxobutanoic acid] | 0.3 nM | 271 µg·h/mL | 13000 ng/mL | 
6 | C=C(C)[C@@H]1CC[C@]2(C(=O)N3CCC[C@H]3c3nc(-c4cccnc4)cn3CCN(C)C)CC[C@]3(C)[C@H](CC[C@@H]4[C@@]5(C)CC[C@H](OC(=O)CC(C)(C)C(=O)O)C(C)(C)[C@@H]5CC[C@]43C)[C@@H]12 [Compound 18, 4-(((1R,3aS,5aR,5bR,7aR,9S,11aR,11bR,13aR,13bR)-3a-((S)-2-(1-(2-(dimethylamino)ethyl)-4-(pyridin-3-yl)-1H-imidazol-2-yl)pyrrolidine-1-carbonyl)-5a,5b,8,8,11a-pentamethyl-1-(prop-1-en-2-yl)icosahydro-1H-cyclopenta[a]chrysen-9-yl)oxy)-2,2-dimethyl-4-oxobutanoic acid] | 80.4 nM | 3.01 µg·h/mL | 648 ng/mL | 
7 | CN(C)CCn1cc(-c2cccnc2)nc1[C@@H]1CCCN1C(=O)[C@]12CC[C@@H](C3(C)CC3)[C@@H]1[C@H]1CC[C@@H]3[C@@]4(C)CC[C@H](OC(=O)[C@H]5C[C@@H](C(=O)O)C5(C)C)C(C)(C)[C@@H]4CC[C@@]3(C)[C@]1(C)CC2 [Compound 19, (1R,3S)-3-((((1R,3aS,5aR,5bR,7aR,9S,11aR,11bR,13aR,13bR)-3a-((S)-2-(1-(2-(dimethylamino)ethyl)-4-(pyridin-3-yl)-1H-imidazol-2-yl)pyrrolidine-1-carbonyl)-5a,5b,8,8,11a-pentamethyl-1-(1-methylcyclopropyl)icosahydro-1H-cyclopenta[a]chrysen-9-yl)oxy)carbonyl)-2,2-dimethylcyclobutane-1-carboxylic acid] | 7.76 nM | 97.4 µg·h/mL | 4260 ng/mL | 
8 | C=C(C)[C@@H]1CC[C@]2(C(=O)N3CCC[C@H]3c3nc(-c4ccccc4)cn3CCP(=O)(OCC)OCC)CC[C@]3(C)[C@H](CC[C@@H]4[C@@]5(C)CC[C@H](OC(=O)[C@H]6C[C@@H](C(=O)O)C6(C)C)C(C)(C)[C@@H]5CC[C@]43C)[C@@H]12 [Compound 22, (1R,3S)-3-((((1R,3aS,5aR,5bR,7aR,9S,11aR,11bR,13aR,13bR)-3a-((S)-2-(1-(2-(diethoxyphosphoryl)ethyl)-4-phenyl-1H-imidazol-2-yl)pyrrolidine-1-carbonyl)-5a,5b,8,8,11a-pentamethyl-1-(prop-1-en-2-yl)icosahydro-1H-cyclopenta[a]chrysen-9-yl)oxy)carbonyl)-2,2-dimethyl cyclobutane-1-carboxylic acid] |  |  |  | IC50 [1, 5]: 14.9 nM; AUC(0-t) [2, 6]: 215 µg·h/mL; Cmax [2, 7]: 5830 ng/mL
9 | C=C(C)[C@@H]1CC[C@]2(C(=O)N3CCC[C@H]3c3nc(-c4ccccc4)cn3CCP(=O)(O)O)CC[C@]3(C)[C@H](CC[C@@H]4[C@@]5(C)CC[C@H](OC(=O)[C@H]6C[C@@H](C(=O)O)C6(C)C)C(C)(C)[C@@H]5CC[C@]43C)[C@@H]12 [Compound 23, (1R,3S)-2,2-dimethyl-3-((((1R,3aS,5aR,5bR,7aR,9S,11aR,11bR,13aR,13bR)-5a,5b,8,8,11a-pentamethyl-3a-((S)-2-(4-phenyl-1-(2-phosphonoethyl)-1H-imidazol-2-yl)pyrrolidine-1-carbonyl)-1-(prop-1-en-2-yl)icosahydro-1H-cyclopenta[a]chrysen-9-yl)oxy)carbonyl)cyclo butane-1-carboxylic acid] |  |  |  | inhibition at 0.01 µM [1, 4]: 24%; inhibition at 0.1 µM [1, 4]: 21%; inhibition at 1 µM [1, 4]: 66%; viability at 4 days, 10 µM (Cyto-toxicity, MTT assay): 88%; viability at 4 days, 30 µM (Cyto-toxicity, MTT assay): 77%; viability at 4 days, 100 µM (Cyto-toxicity, MTT assay): 66%
10 | C=C(C)[C@@H]1CC[C@]2(C(=O)N3CCC[C@H]3c3nc(-c4ccc(F)cc4)cn3CCP(=O)(OCC)OCC)CC[C@]3(C)[C@H](CC[C@@H]4[C@@]5(C)CC[C@H](OC(=O)[C@H]6C[C@@H](C(=O)O)C6(C)C)C(C)(C)[C@@H]5CC[C@]43C)[C@@H]12 [Compound 24, (1R,3S)-3-((((1R,3aS,5aR,5bR,7aR,9S,11aR,11bR,13aR,13bR)-3a-((S)-2-(1-(2-(diethoxyphosphoryl)ethyl)-4-(4-fluorophenyl)-1H-imidazol-2-yl)pyrrolidine-1-carbonyl)-5a,5b,8,8,11a-pentamethyl-1-(prop-1-en-2-yl)icosahydro-1H-cyclopenta[a]chrysen-9-yl)oxy)carbonyl)-2,2-dimethylcyclobutane-1-carboxylic acid] |  |  |  | IC50 [1, 5]: 0.972 nM; AUC(0-t) [2, 6]: 89.4 µg·h/mL; Cmax [2, 7]: 2550 ng/mL
